tested on: rabbit skeletal myofibrils (fast skeletal myofibrils); assay: Activation of fast skeletal myofibrils (PUMA assay, PK/LDH-coupled ATPase at pCa25); type: biochemical; conditions: AC1.4 determined according to the procedure of Example 39; reported as class symbols
Outline: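 ATPase activity of Triton-washed rabbit skeletal myofibrils, roughly 90% fast fibres, tracked by NADH loss at 340 nm through a PK/LDH-coupled ADP-regenerating system. Calcium set to 25% of maximal activity (pCa25), in PIPES 12 mM pH 6.8 with 2 mM MgCl2 and 1 mM DTT; AC1.4 reported.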

| Mean AC1.4 | Structure (SMILES) |
| --- | --- |
| C (C=10-20 uM) | CC(C)(CNc1ccc(C(=O)N[C@@H](Cc2ccccc2)C(N)=O)nn1)c1ccc(F)cc1 [N-((1S)-1-carbamoyl-2-phenylethyl)(6-{[2-(4-fluorophenyl)-2-methylpropyl]amino}pyridazin-3-yl)carboxamide] |
| D (D=>20 uM) | CC(C)(CNc1ccc(C(=O)NCC(N)=O)nn1)c1ccc(F)cc1 [N-(carbamoylmethyl)(6-{[2-(4-fluorophenyl)-2-methylpropyl]amino}pyridazin-3-yl)carboxamide] |

same assay, conditions: median AC1.4 class, procedure of Example 39

| Mean AC1.4 | Structure (SMILES) |
| --- | --- |
| D (D=>20 uM) | NC(=O)CNC(=O)c1ccc(NCC2(c3ncccc3F)CCC2)nn1 [N-(carbamoylmethyl)[6-({[(3-fluoro(2-pyridyl))cyclobutyl]methyl}ami-no)pyridazin-3-yl]carboxamide] |
| A (A=<1 uM) | NC(=O)CNC(=O)c1cnc(-c2ccc(NCC3(c4ncccc4F)CCC3)nn2)s1 [N-(carbamoylmethyl){2-[6-({[(3-fluoro(2-pyridyl))cyclobutyl]methyl}ami-no)pyridazin-3-yl](1,3-thiazol-5-yl)}carboxamide] |
| A (A=<1 uM) | O=C(NCc1cnc(-c2ccc(NCC3(c4ncccc4F)CCC3)nn2)s1)c1cnc(O)[nH]1 [N-({2-[6-({[(3-fluoro(2-pyridyl))cyclobutyl]methyl}ami-no)pyridazin-3-yl](1,3-thiazol-5-yl)}methyl)(2-hydroxyimidazol-5-yl)carboxamide] |
| A (A=<1 uM) | CC(C)(O)C(=O)NCc1cnc(-c2ccc(NCC3(c4ncccc4F)CCC3)nn2)s1 [N-({2-[6-({[(3-fluoro(2-pyridyl))cyclobutyl]methyl}ami-no)pyridazin-3-yl](1,3-thiazol-5-yl)}methyl)-2-hydroxy-2-methylpropanamide] |
| A (A=<1 uM) | O=C(CO)NCc1cnc(-c2ccc(NCC3(c4ncccc4F)CCC3)nn2)s1 [N-({2-[6-({[(3-fluoro(2-pyridyl))cyclobutyl]methyl}ami-no)pyridazin-3-yl](1,3-thiazol-5-yl)}methyl)-2-hydroxyacetamide] |
| A (A=<1 uM) | CC(C)C(=O)NCc1cnc(-c2ccc(NCC3(c4ncccc4F)CCC3)nn2)s1 [N-({2-[6-({[(3-fluoro(2-pyridyl))cyclobutyl]methyl}ami-no)pyridazin-3-yl](1,3-thiazol-5-yl)}methyl)-2-methylpropanamide] |
| A (A=<1 uM) | O=C(NCc1cnc(-c2ccc(NCC3(c4ncccc4F)CCC3)nn2)s1)c1ncc[nH]1 [N-({2-[6-({[(3-fluoro(2-pyridyl))cyclobutyl]methyl}ami-no)pyridazin-3-yl](1,3-thiazol-5-yl)}methyl)imidazol-2-ylcarboxamide] |
| A (A=<1 uM) | O=C(NCc1cnc(-c2ccc(NCC3(c4ncccc4F)CCC3)nn2)s1)c1cnc[nH]1 [N-({2-[6-({[(3-fluoro(2-pyridyl))cyclobutyl]methyl}ami-no)pyridazin-3-yl](1,3-thiazol-5-yl)}methyl)imidazol-5-ylcarboxamide] |
| B (B=1-10 uM) | COC(=O)NCc1cnc(-c2ccc(NCC3(c4ncccc4F)CCC3)nn2)s1 [N-({2-[6-({[(3-fluoro(2-pyridyl))cyclobutyl]methyl}ami-no)pyridazin-3-yl](1,3-thiazol-5-yl)}methyl)methoxycarboxamide] |
| A (A=<1 uM) | O=C(NCc1cnc(-c2ccc(NCC3(c4ncccc4F)CCC3)nn2)s1)c1cn[nH]c1 [N-({2-[6-({[(3-fluoro(2-pyridyl))cyclobutyl]methyl}ami-no)pyridazin-3-yl](1,3-thiazol-5-yl)}methyl)pyrazol-4-ylcarboxamide] |
| A (A=<1 uM) | O=C(NCc1cnc(-c2ccc(NCC3(c4ncccc4F)CCC3)nn2)s1)c1ccn[nH]1 [N-({2-[6-({[(3-fluoro(2-pyridyl))cyclobutyl]methyl}ami-no)pyridazin-3-yl](1,3-thiazol-5-yl)}methyl)pyrazol-5-ylcarboxamide] |
| A (A=<1 uM) | O=C(NCc1cnc(-c2ccc(NCC3(c4ncccc4F)CCC3)nn2)s1)C1(NCc2ccccc2)COC1 [N-({2-[6-({[(3-fluoro(2-pyridyl))cyclobutyl]methyl}ami-no)pyridazin-3-yl](1,3-thiazol-5-yl)}methyl){3-[benzylamino]oxetan-3-yl}carboxamide] |

The next lines start with the molecule.

| Structure (SMILES) | Mean AC1.4 |
| --- | --- |
| CC(C)(C)[S+]([O-])NCc1cnc(-c2ccc(NCC3(c4ncccc4F)CCC3)nn2)s1 (centres unmarked) [N-((2-(6-((1-(3-fluoropyridin-2-yl)cyclobutyl)methylamino)pyr-idazin-3-yl)thiazol-5-yl)methyl)-2-methylpropane-2-sulfinamide] | B (B=1-10 uM) |
| O=C(NC[C@@H](O)CO)c1cnc(-c2ccc(NCC3(c4ncccc4F)CCC3)nn2)s1 [N-((2R)-2,3-dihydroxypropyl){2-[6-({[(3-fluoro(2-pyridyl))cyclobutyl]methyl}ami-no)pyridazin-3-yl](1,3-thiazol-5-yl)}carboxamide] | B (B=1-10 uM) |
| O=C(NC[C@@H](O)CO)c1ccc(F)c(-c2ccc(NC[C@]3(c4ncccc4F)C[C@H](F)C3)nn2)c1 [N-((2R)-2,3-dihydroxypropyl){4-fluoro-3-[6-({[3-fluoro-1-(3-fluoro(2-pyridyl))cyclobutyl]methyl}ami-no)pyridazin-3-yl]phenyl}carboxamide] | A (A=<1 uM) |
| O=C(NC[C@H](O)CO)c1cnc(-c2ccc(NCC3(c4ncccc4F)CCC3)nn2)s1 [N-((2S)-2,3-dihydroxypropyl){2-[6-({[(3-fluoro(2-pyridyl))cyclobutyl]methyl}ami-no)pyridazin-3-yl](1,3-thiazol-5-yl)}carboxamide] | A (A=<1 uM) |
| O=C(NC[C@H](O)CO)c1ccc(F)c(-c2ccc(NC[C@]3(c4ncccc4F)C[C@H](F)C3)nn2)c1 [N-((2S)-2,3-dihydroxypropyl){4-fluoro-3-[6-({[3-fluoro-1-(3-fluoro(2-pyridyl))cyclobutyl]methyl}ami-no)pyridazin-3-yl]phenyl}carboxamide] | A (A=<1 uM) |
| O=C(N[C@@H]1CCNC1)c1cnc(-c2ccc(NCC3(c4ncccc4F)CCC3)nn2)s1 [N-((3R)pyrrolidin-3-yl){2-[6-({[(3-fluoro(2-pyridyl))cyclobutyl]methyl}ami-no)pyridazin-3-yl](1,3-thiazol-5-yl)}carboxamide] | A (A=<1 uM) |
| O=C(N[C@@H]1CCNC1)c1ccc(F)c(-c2ccc(NC[C@]3(c4ncccc4F)C[C@H](F)C3)nn2)c1 [N-((3R)pyrrolidin-3-yl){4-fluoro-3-[6-({[3-fluoro-1-(3-fluoro(2-pyridyl))cyclobutyl]methyl}ami-no)pyridazin-3-yl]phenyl}carboxamide] | B (B=1-10 uM) |
| O=C(N[C@H]1CCNC1)c1cnc(-c2ccc(NCC3(c4ncccc4F)CCC3)nn2)s1 [N-((3S)pyrrolidin-3-yl){2-[6-({[(3-fluoro(2-pyridyl))cyclobutyl]methyl}ami-no)pyridazin-3-yl](1,3-thiazol-5-yl)}carboxamide] | A (A=<1 uM) |
| O=C(N[C@H]1CCNC1)c1ccc(F)c(-c2ccc(NC[C@]3(c4ncccc4F)C[C@H](F)C3)nn2)c1 [N-((3S)pyrrolidin-3-yl){4-fluoro-3-[6-({[3-fluoro-1-(3-fluoro(2-pyridyl))cyclobutyl]methyl}ami-no)pyridazin-3-yl]phenyl}carboxamide] | B (B=1-10 uM) |

same assay, conditions: median AC1.4 reported as class; procedure of Example 39

| Mean AC1.4 | Structure (SMILES) |
| --- | --- |
| B (B=1-10 uM) | O=C(N[C@@H]1CS(=O)(=O)C[C@H]1O)c1cccc(-c2ccc(NC[C@]3(c4ncccc4F)C[C@H](F)C3)nn2)c1 [N-((3S,4S)-4-hydroxy-1,1-dioxothiolan-3-yl){3-[6-({[3-fluoro-1-(3-fluoro(2-pyridyl))cyclobutyl]methyl}ami-no)pyridazin-3-yl]phenyl}carboxamide] |
| B (B=1-10 uM) | CN(Cc1cnc(-c2ccc(NCC3(c4ncccc4F)CCC3)nn2)s1)C(=O)CO [N-({2-[6-({[(3-fluoro(2-pyridyl))cyclobutyl]methyl}ami-no)pyridazin-3-yl](1,3-thiazol-5-yl)}methyl)-2-hydroxy-N-methylacetamide] |
| A (A=<1 uM) | CNC(C)(C)C(=O)NCc1cnc(-c2ccc(NCC3(c4ncccc4F)CCC3)nn2)s1 [N-({2-[6-({[(3-fluoro(2-pyridyl))cyclobutyl]methyl}ami-no)pyridazin-3-yl](1,3-thiazol-5-yl)}methyl)-2-methyl-2-(methylamino)propanamide] |

More lines, now with the values behind:

| Structure (SMILES) | Mean AC1.4 |
| --- | --- |
| O=C(N[C@@H]1CCNC1=O)c1ccc(NCC2(c3ncccc3F)CCC2)nn1 [N-((3R)-2-oxopyrrolidin-3-yl)[6-({[(3-fluoro(2-pyridyl))cyclobutyl]methyl}ami-no)pyridazin-3-yl]carboxamide] | D (D=>20 uM) |
| O=C1CC[C@@H](NC(=O)c2ccc(NCC3(c4ncccc4F)CCC3)nn2)CN1 [N-((3R)-6-oxo(3-piperidyl))[6-({[(3-fluoro(2-pyridyl))cyclobutyl]methyl}ami-no)pyridazin-3-yl]carboxamide] | D (D=>20 uM) |
| O=C(N[C@@H]1CCOC1)c1cccc(-c2ccc(NC[C@]3(c4ncccc4F)C[C@H](F)C3)nn2)c1 [N-((3R)oxolan-3-yl){3-[6-({[3-fluoro-1-(3-fluoro(2-pyridyl))cyclobutyl]methyl}ami-no)pyridazin-3-yl]phenyl}carboxamide] | B (B=1-10 uM) |
| O=C(N[C@H]1CCNC1=O)c1ccc(NCC2(c3ncccc3F)CCC2)nn1 [N-((3S)-2-oxopyrrolidin-3-yl)[6-({[(3-fluoro(2-pyridyl))cyclobutyl]methyl}ami-no)pyridazin-3-yl]carboxamide] | D (D=>20 uM) |
| O=C1CC[C@H](NC(=O)c2ccc(NCC3(c4ncccc4F)CCC3)nn2)CN1 [N-((3S)-6-oxo(3-piperidyl))[6-({[(3-fluoro(2-pyridyl))cyclobutyl]methyl}ami-no)pyridazin-3-yl]carboxamide] | D (D=>20 uM) |
| O=C(N[C@H]1CCOC1)c1cccc(-c2ccc(NC[C@]3(c4ncccc4F)C[C@H](F)C3)nn2)c1 [N-((3S)oxolan-3-yl){3-[6-({[3-fluoro-1-(3-fluoro(2-pyridyl))cyclobutyl]methyl}ami-no)pyridazin-3-yl]phenyl}carboxamide] | B (B=1-10 uM) |
